Data reported in US20240090503A1, “FUNGICIDAL OXADIAZOLES AND THEIR MIXTURES” (FMC CORPORATION, priority 2020, published 2024).
Where two headings read alike, the source gives them in different places. One block for each compound: values may come before it.

Experiments:
[1] = test system: Puccinia recondita f. sp. tritici (the causal agent of wheat leaf rust); assay: Test C: preventive spray on wheat seedlings, wheat leaf rust, visual disease rating; type: in vivo; settings: Puccinia recondita, 168 h, wheat seedlings; for pest or weed control at 10 µg/mL: test suspension 10 ppm, read-out: Test C disease control rating; for pest or weed control at 10 ppm: 10 ppm test suspension
Procedure, shortened: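 Wheat seedlings sprayed to run-off with compound in acetone/water (50/50) with 250 ppm PEG400, then inoculated with spores the following day. After 24 h saturated humidity at 20° C. and 6 days in growth chamber at 20° C., disease rated visually as % control relative to untreated controls.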

[2] = test system: Zymoseptoria tritici (the causal agent of wheat leaf blotch); assay: Test B: preventive spray on wheat seedlings, wheat leaf blotch, visual disease rating; type: in vivo; settings: Zymoseptoria tritici, 456 h, wheat seedlings; for pest or weed control at 250 µg/mL: test suspension 250 ppm
Procedure, shortened: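 This is a preventive test: spray application preceded Zymoseptoria tritici spore inoculation by one day. Test suspensions were in acetone/water with 250 ppm PEG400 surfactant, at the listed ppm rate. After 48 h saturated humidity at 24° C and 17 days at 20° C, visual ratings scored control from 0 to 100%.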

[3] = test system: Phakopsora pachyrhizi (the causal agent of Asian soybean rust); assay: Test A: preventive spray on soybean seedlings, Asian soybean rust, visual disease rating; type: in vivo; settings: Phakopsora pachyrhizi, 216 h, soybean seedlings, 100 = 100% disease control, 0 = no control; for pest or weed control at 10 µg/mL: test suspension 10 ppm, read-out: Test A disease control rating; for pest or weed control at 10 ppm: 10 ppm test suspension
Procedure, shortened: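 Compound in acetone/water (50/50) with 250 ppm PEG400 sprayed to run-off on soybean seedlings; inoculated next day with Phakopsora pachyrhizi spores. Held 24 h at 22° C in saturated atmosphere, then 8 days in a 22° C growth chamber before visual rating as % disease control relative to controls.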

[4] = test system: Phakopsora pachyrhizi (the causal agent of Asian soybean rust); assay: Test E: compounds alone and mixtures sprayed on soybean seedlings, Asian soybean rust, observed and Colby-expected disease control; type: in vivo
From the text: The general protocol for preparing test compositions for TEST E was as follows: Compound 316, Compound 376, Compound 225, Compound 229, Compound 257, Compound 394, Compound 506, Compound 507, Compound 508, Compound 509, Compound 511, Compound 512, methyl N-[[5-[1-[2,6-difluoro-4-(1-methylethyl)phenyl]-1H-pyrazol-3-yl]-2-methylphenyl]methyl]carbamate (b54.11a), methyl N-[[5-[l-(4-cyclopropyl-2,6-difluorophenyl)-1H-pyrazol-3-yl]-2-methylphenyl]methyl]carbamate (b54.11d), ethyl 1-[[4-[[(1Z)-2-ethoxy-3,3,3-trifluoro-1-propen-1-yl]oxy]phenyl]methyl]-1H-pyrazole-4-carboxylate (b54.12a), ethyl 1-[[4-[[2-(trifluoromethyl)-1,3-dioxolan-2-yl]methoxy]phenyl]methyl]-1H-pyrazole-4-carboxylate (b54.13a), azoxystrobin, benzovindiflupyr, bixafen, chlorothalonil, cyproconazole, epoxiconazole, fenpropidin, fenpropimorph, fluindapyr, flutriafol, fluxapyroxad, inpyrfluxam, metominostrobin, picoxystrobin, prothioconazole, pydiflumetofen, pyraclostrobin, tebuconazole and trifloxystrobin were obtained as unformulated, technical-grade materials. Copper hydroxide and mancozeb was obtained as a formulated product marketed under the trademarks KOCIDE 3000 and MANZATE, respectively. Unformulated materials were first dissolved in acetone and then suspended at the desired concentration (in ppm) in acetone and purified water (50/50 mixture by volume) containing 250 ppm of the surfactant Trem® 014 (polyhydric alcohol esters). Formulated materials were dispersed in sufficient water to give the desired concentration, and neither organic solvent nor surfactant was added to the suspension. The resulting test mixtures were then used in TEST E. The tests were run on four individual plants and the results reported as the mean average of the four plants.
The presence of a synergistic effect between two active ingredients can be established with the aid of the Colby equation (see Colby, S. R. “Calculating Synergistic and Antagonistic Responses of Herbicide Combinations”, Weeds, (1967), 15, 20-22):
Using the method of Colby, the presence of a synergistic interaction between two active ingredients is established by first calculating the predicted activity, p, of the mixture based on activities of the two components applied alone. If p is lower than the experimentally established effect, synergism has occurred. In the equation above, A is the fungicidal activity in percentage control of one component applied alone at rate x. The B term is the fungicidal activity in percentage control of the second component applied at rate y. The equation estimates p, the expected fungicidal activity of the mixture of A at rate x with B at rate y if their effects are strictly additive and no interaction has occurred.
The test mixture was sprayed to the point of run-off on soybean seedlings. The following day the seedlings were inoculated with a spore suspension of Phakopsora pachyrhizi (the causal agent of Asian soybean rust) and incubated in a saturated atmosphere at 22° C. for 24 h and then moved to a growth chamber at 22° C. for 8 days, after which time visual disease ratings were made.
Results for Test E are given below in Tables A-1 through K-2. Each table corresponds to a set of evaluations performed together at the same time. In each table, a rating of 100 indicates 100% disease control and a rating of 0 indicates no disease control (relative to the controls). Columns labeled “Obsd” indicate the average of results observed from test run on four individual plants. Columns labeled “Exp” indicate the expected value for each treatment mixture using the Colby equation, as described above.

[5] = 100 = 100% disease control, 0 = no control
[6] = Phakopsora pachyrhizi, Compound 508 alone, read-out: Test E Obsd
[7] = Phakopsora pachyrhizi, applied alone, read-out: Test E Obsd

Compound: N#CCCNC(=O)c1coc(Cc2ccc(-c3noc(C(F)(F)F)n3)cc2)n1 [Compound 229, N-(2-cyanoethyl)-2-[[4-[5-(trifluoromethyl)-1,2,4-oxadiazol-3-yl]phenyl]methyl]-4-oxazolecarboxamide]
pest or weed control at 10 µg/mL [1]: 100%
pest or weed control at 250 µg/mL [2]: 94%
pest or weed control at 10 µg/mL [3]: 100%
pest or weed control at 0.964 ppm ([4]; Phakopsora pachyrhizi, applied alone, 0.964 ppm, read-out: Test E Obsd): 59%
pest or weed control at 1.915 ppm ([4]; Phakopsora pachyrhizi, applied alone, 1.915 ppm, read-out: Test E Obsd): 77%

melting point: 116 to 120 °C
Compound: O=C(NCC(F)(F)F)c1noc(Cc2ccc(-c3noc(C(F)(F)F)n3)cc2)n1 [Compound 506, N-(2,2,2-trifluoroethyl)-5-[[4-[5-(trifluoromethyl)-1,2,4-oxadiazol-3-yl]phenyl]methyl]-1,2,4-oxadiazole-3-carboxamide]
pest or weed control at 250 ppm ([1]; 250 ppm test suspension, 100 = 100% disease control, 0 = no control): 100%
pest or weed control at 250 ppm ([2]; 250 ppm test suspension, 100 = 100% disease control): 49%
pest or weed control at 250 ppm ([3]; 250 ppm test suspension): 100%

Compound: O=C(NCC(F)F)c1coc(Cc2ccc(-c3noc(C(F)(F)F)n3)cc2)n1 [Compound 225, N-(2,2-difluoroethyl)-2-[[4-[5-(trifluoromethyl)-1,2,4-oxadiazol-3-yl]phenyl]methyl]-4-oxazolecarboxamide]
pest or weed control at 10 µg/mL [1]: 100%
pest or weed control at 250 µg/mL [2]: 99%
pest or weed control at 10 µg/mL [3]: 100%
pest or weed control at 0.589 ppm ([4]; Phakopsora pachyrhizi, applied alone, 0.589 ppm, read-out: Test E Obsd): 68%

Compound: CCOC(=O)c1cnn(COc2ccc(-c3noc(C(F)(F)F)n3)cc2)c1 [Compound 376, ethyl 1-[[4-[5-(trifluoromethyl)-1,2,4-oxadiazol-3-yl]phenoxy]methyl]-1H-pyrazole-4-carboxylate]
pest or weed control at 10 µg/mL [1]: 68%
pest or weed control at 250 µg/mL [2]: 49%
pest or weed control at 10 µg/mL [3]: 100%
pest or weed control at 0.753 ppm ([4]; Phakopsora pachyrhizi, Compound 376 alone, 0.753 ppm, read-out: Test E Obsd): 53%
pest or weed control at 1.228 ppm ([4]; Phakopsora pachyrhizi, Compound 376 alone, 1.228 ppm, read-out: Test E Obsd): 78%
pest or weed control at 0.753 ppm ([4]; Phakopsora pachyrhizi, Table A-2, Compound 376 0.753 ppm alone, read-out: Test E Obsd (disease control rating)): 70%
pest or weed control at 1.228 ppm ([4]; Phakopsora pachyrhizi, Table A-2, Compound 376 1.228 ppm alone, read-out: Test E Obsd (disease control rating)): 66%
pest or weed control at 0.753 ppm ([4]; Phakopsora pachyrhizi, Table B-2, Compound 376 0.753 ppm alone, read-out: Test E Obsd (disease control rating)): 15%
pest or weed control at 1.228 ppm ([4]; Phakopsora pachyrhizi, Table B-2, Compound 376 1.228 ppm alone, read-out: Test E Obsd (disease control rating)): 21%
pest or weed control at 0.753 ppm ([4]; Phakopsora pachyrhizi, Table C-2, Compound 376 0.753 ppm alone, read-out: Test E Obsd (disease control rating)): 54%
pest or weed control at 1.228 ppm ([4]; Phakopsora pachyrhizi, Table C-2, Compound 376 1.228 ppm alone, read-out: Test E Obsd (disease control rating)): 71%
pest or weed control at 0.753 ppm ([4]; Phakopsora pachyrhizi, Table D-2, Compound 376 0.753 ppm alone, read-out: Test E Obsd (disease control rating)): 67%
pest or weed control at 1.228 ppm ([4]; Phakopsora pachyrhizi, Table D-2, Compound 376 1.228 ppm alone, read-out: Test E Obsd (disease control rating)): 68%
pest or weed control at 0.753 ppm ([4]; Phakopsora pachyrhizi, Table E-2, Compound 376 0.753 ppm alone, read-out: Test E Obsd (disease control rating)): 81%
pest or weed control at 1.228 ppm ([4]; Phakopsora pachyrhizi, Table E-2, Compound 376 1.228 ppm alone, read-out: Test E Obsd (disease control rating)): 67%
pest or weed control at 0.753 ppm ([4]; Phakopsora pachyrhizi, Table F-2, Compound 376 0.753 ppm alone, read-out: Test E Obsd (disease control rating)): 68%
pest or weed control at 1.228 ppm ([4]; Phakopsora pachyrhizi, Table F-2, Compound 376 1.228 ppm alone, read-out: Test E Obsd (disease control rating)): 77%
pest or weed control at 0.753 ppm ([4]; Phakopsora pachyrhizi, Table G-2, Compound 376 0.753 ppm alone, read-out: Test E Obsd (disease control rating)): 52%
pest or weed control at 1.228 ppm ([4]; Phakopsora pachyrhizi, Table G-2, Compound 376 1.228 ppm alone, read-out: Test E Obsd (disease control rating)): 37%
pest or weed control at 0.753 ppm ([4]; Phakopsora pachyrhizi, Table H-2, Compound 376 0.753 ppm alone, read-out: Test E Obsd (disease control rating)): 62%
pest or weed control at 1.228 ppm ([4]; Phakopsora pachyrhizi, Table H-2, Compound 376 1.228 ppm alone, read-out: Test E Obsd (disease control rating)): 81%

melting point: 101 to 104 °C
Compound: N#CCc1cc(Cc2ccc(-c3noc(C(F)(F)F)n3)cc2)on1 [Compound 510, 5-[[4-[5-(trifluoromethyl)-1,2,4-oxadiazol-3-yl]phenyl]methyl]-3-isoxazoleacetonitrile]
pest or weed control at 10 ppm [1, 5]: 84%
pest or weed control at 10 ppm [3]: 100%

Compound: CO/C=C(/C(=O)OC)c1ccccc1Oc1cc(Oc2ccccc2C#N)ncn1 [azoxystrobin, reference compound]
Test E Obsd (disease control rating) ([4]; Table D-1, component (b) alone: cyproconazole 37.333, azoxystrobin 95.873, trifloxystrobin 20.511 ppm): 70%
Test E Obsd (disease control rating) ([4]; Table D-1, component (b) alone: cyproconazole 64.883, azoxystrobin 169.226, trifloxystrobin 35.310 ppm): 88%
Test E Obsd (disease control rating) ([4]; Table D-2, component (b) alone: cyproconazole 37.333, azoxystrobin 95.873, trifloxystrobin 20.511 ppm): 70%
Test E Obsd (disease control rating) ([4]; Table D-2, component (b) alone: cyproconazole 64.883, azoxystrobin 169.226, trifloxystrobin 35.310 ppm): 88%

Compound: CCNC(=O)c1cnn(COCc2ccc(-c3noc(C(F)(F)F)n3)cc2)c1 [Compound 508, N-ethyl-1-[[[4-[5-(trifluoromethyl)-1,2,4-oxadiazol-3-yl]phenyl]methoxy]methyl]-1H-pyrazole-4-carboxamide]
pest or weed control at 10 ppm [1, 5]: 100%
pest or weed control at 10 ppm [3]: 100%
pest or weed control at 0.855 ppm [4, 6]: 0%
pest or weed control at 1.716 ppm [4, 6]: 52%
pest or weed control at 0.855 ppm [4, 7]: 23%
pest or weed control at 1.716 ppm [4, 7]: 60%

Compound: COCCNC(=O)c1coc(Cc2ccc(-c3noc(C(F)(F)F)n3)cc2)n1 [Compound 257, N-(2-methoxyethyl)-2-[[4-[5-(trifluoromethyl)-1,2,4-oxadiazol-3-yl]phenyl]methyl]-4-oxazolecarboxamide]
pest or weed control at 10 µg/mL [1]: 100%
pest or weed control at 250 µg/mL [2]: 99%
pest or weed control at 10 µg/mL [3]: 100%
pest or weed control at 0.914 ppm ([4]; Phakopsora pachyrhizi, applied alone, 0.914 ppm, read-out: Test E Obsd): 27%
